The values below come from PubChem BioAssay AID328 (DTP/NCI, 2004).

The structures appear in SMILES notation. Values joined by “and” are separate entries in the source; they are usually repeats but may differ in a detail not shown here. Identical values can stand only once. Toxic doses and inconclusive results are not listed.

The assay has as its system BDF1 mice, P388 leukemia ip, median survival T/C. Description: NCI In Vivo Anticancer Drug Screen. Data for tumor model P388 Leukemia (intraperitoneal) in B6D2F1 (BDF1) mice. The settings on record: endpoint: median survival time, higher = longer survival. An outline of the steps: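 T/C = treated-group survival ÷ vehicle-control survival; tumour transplanted into mice before dosing.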

Setting [1] is: dose: 50.0 mg/kg/injection, schedule: Q01DX009 (ip), vehicle: Klucel (hydroxypropylcellulose) (HPC).
Where [2] appears, read: dose: 50.0 mg/kg/injection, schedule: Q01DX009 (ip), vehicle: saline with Tween-80.
[3] abbreviates: dose: 100.0 mg/kg/injection, schedule: Q04DX003 (ip), vehicle: Klucel (hydroxypropylcellulose) (HPC).
Setting [4] is: dose: 200.0 mg/kg/injection, schedule: Q01DX009 (ip), vehicle: Klucel (hydroxypropylcellulose) (HPC).
[5] abbreviates: dose: 200.0 mg/kg/injection, schedule: Q04DX003 (ip), vehicle: Klucel (hydroxypropylcellulose) (HPC).
[6] abbreviates: dose: 400.0 mg/kg/injection, schedule: Q01DX009 (ip), vehicle: Klucel (hydroxypropylcellulose) (HPC).
Where [7] appears, read: dose: 400.0 mg/kg/injection, schedule: Q04DX003 (ip), vehicle: Klucel (hydroxypropylcellulose) (HPC).
The mark [8] stands for this setting: dose: 100.0 mg/kg/injection, schedule: Q04DX003 (ip), vehicle: saline with Tween-80.
Setting [9] is: dose: 200.0 mg/kg/injection, schedule: Q04DX003 (ip), vehicle: saline with Tween-80.
The mark [10] stands for this setting: dose: 400.0 mg/kg/injection, schedule: Q04DX003 (ip), vehicle: saline with Tween-80.
Where [11] appears, read: dose: 100.0 mg/kg/injection, schedule: Q01DX009 (ip), vehicle: saline with Tween-80.
Where [12] appears, read: dose: 200.0 mg/kg/injection, schedule: Q01DX009 (ip), vehicle: saline with Tween-80.
Setting [13] is: dose: 400.0 mg/kg/injection, schedule: Q01DX009 (ip), vehicle: saline with Tween-80.
Where [14] appears, read: dose: 100.0 mg/kg/injection, schedule: Q01DX009 (ip), vehicle: Klucel (hydroxypropylcellulose) (HPC).

Turning to `CCCCCCCCCCCCCCSC(CC(=O)O)C(=O)O` (configuration not stated), the T/C is, setting by setting: (dose: 15.0 mg/kg/injection, schedule: Q01DX009 (ip), vehicle: saline with Tween-80) 87 % of control; (dose: 30.0 mg/kg/injection, schedule: Q01DX009 (ip), vehicle: saline with Tween-80) 98 % of control; (dose: 60.0 mg/kg/injection, schedule: Q01DX009 (ip), vehicle: saline with Tween-80) 94 % of control.

`CCC1=C(C[C@H]2NCCc3cc(OC)c(OC)cc32)C[C@H]2c3cc(OC)c(OC)cc3CCN2C1`: the T/C reads like this: (dose: 4.0 mg/kg/injection, schedule: Q04DX003 (ip), vehicle: saline) 110 % of control; (dose: 6.7 mg/kg/injection, schedule: Q04DX003 (ip), vehicle: saline with Tween-80) 113 % of control; (dose: 15.0 mg/kg/injection, schedule: Q04DX003 (ip), vehicle: saline with Tween-80) 159 % of control; (dose: 16.0 mg/kg/injection, schedule: Q04DX003 (ip), vehicle: saline) 158 % of control; (dose: 22.0 mg/kg/injection, schedule: Q04DX003 (ip), vehicle: Klucel (hydroxypropylcellulose) (HPC)) 165 % of control; (dose: 32.0 mg/kg/injection, schedule: Q04DX003 (ip), vehicle: saline) 174 % of control. Also, the T/C by setting is: (dose: 33.0 mg/kg/injection, schedule: Q04DX003 (ip), vehicle: Klucel (hydroxypropylcellulose) (HPC)) 165 % of control; (dose: 33.0 mg/kg/injection, schedule: Q04DX003 (ip), vehicle: saline with Tween-80) 177 % of control; (dose: 33.0 mg/kg/injection, schedule: Q04DX003 (ip), vehicle: saline) 154 % of control; (dose: 50.0 mg/kg/injection, schedule: Q04DX003 (ip), vehicle: saline with Tween-80) 195 % of control; (dose: 75.0 mg/kg/injection, schedule: Q04DX003 (ip), vehicle: saline) 90 % of control.

With `C[N+](C)(C)CC(O)CC#N` (configuration not stated), the T/C is 100 % of control (dose: 12.5 mg/kg/injection, schedule: Q01DX009 (ip), vehicle: Klucel (hydroxypropylcellulose) (HPC)); 100 % of control (dose: 25.0 mg/kg/injection, schedule: Q01DX009 (ip), vehicle: Klucel (hydroxypropylcellulose) (HPC)); 90 % of control under setting [1].

With `CCCCCCCC(=O)Oc1c(Cl)c(Cl)c(C#N)c(Cl)c1C#N`, under setting [2], the T/C was 119 % of control.

Turning to `CCSC(=O)N1c2ccc(C)cc2C=CC1C#N` (configuration not stated), the T/C by setting is: (dose: 62.5 mg/kg/injection, schedule: Q01DX001 (ip), vehicle: saline with Tween-80) 113 % of control; (dose: 125.0 mg/kg/injection, schedule: Q01DX001 (ip), vehicle: saline with Tween-80) 104 % of control; (dose: 250.0 mg/kg/injection, schedule: Q01DX001 (ip), vehicle: saline with Tween-80) 122 % of control.

Regarding `Cc1ccc(NCC2(/N=C/c3ccccc3)OC(CO)C(O)C2O)cc1` (configuration not stated), the T/C runs as follows: under setting [3], 119 % of control; under setting [4], 150 % of control; under setting [5], 107 % of control; under setting [6], 158 % of control; under setting [7], 123 % of control.

Turning to `CCN(CC)CCCNc1ncnc2onc(C)c12`, the T/C reads like this: under setting [8], 101 % of control; under setting [9], 97 % of control; under setting [10], 106 % of control.

Consider `CN=C(N)c1ccc(N=C(N)c2ccc(N=C(N)c3ccc(NC(=O)Nc4ccc(NC(=O)Nc5ccc(C(N)=Nc6ccc(C(N)=Nc7ccc(C(N)=NC)cc7)cc6)cc5)cc4)cc3)cc2)cc1`, for which the T/C was 162 % of control (dose: 3.0 mg/kg/injection, schedule: Q01DX009 (ip), vehicle: saline with Tween-80); 183 % of control (dose: 5.0 mg/kg/injection, schedule: Q01DX009 (ip), vehicle: saline with Tween-80); 230 % of control and 162 % of control (dose: 8.0 mg/kg/injection, schedule: Q01DX009 (ip), vehicle: saline with Tween-80); 150 % of control (dose: 12.0 mg/kg/injection, schedule: Q01DX009 (ip), vehicle: saline with Tween-80); 250 % of control (dose: 12.0 mg/kg/injection, schedule: Q04DX003 (ip), vehicle: saline with Tween-80); 92 % of control (dose: 18.0 mg/kg/injection, schedule: Q01DX009 (ip), vehicle: saline with Tween-80). For the same molecule, the T/C (dose: 18.0 mg/kg/injection, schedule: Q04DX003 (ip), vehicle: saline with Tween-80) is 213 % of control and 216 % of control; the T/C (dose: 25.0 mg/kg/injection, schedule: Q01DX009 (ip), vehicle: saline with Tween-80) is 109 % of control; the T/C (dose: 25.0 mg/kg/injection, schedule: Q04DX003 (ip), vehicle: saline with Tween-80) is 250 % of control and 204 % of control; the T/C (dose: 37.0 mg/kg/injection, schedule: Q04DX003 (ip), vehicle: saline with Tween-80) is 170 % of control.

On to `CCCCc1ccc(C#N)nc1`, for which the T/C runs as follows: under setting [2], 98 % of control; under setting [11], 106 % of control; under setting [12], 108 % of control.

Turning to `O=C(CBr)c1cccc(OC(=O)c2ccccc2)c1`, the T/C by setting is: (dose: 25.0 mg/kg/injection, schedule: Q04DX003 (ip), vehicle: Klucel (hydroxypropylcellulose) (HPC)) 96 % of control; (dose: 50.0 mg/kg/injection, schedule: Q04DX003 (ip), vehicle: Klucel (hydroxypropylcellulose) (HPC)) 88 % of control.

As to `O=C(NCc1cnccn1)Oc1ccc([N+](=O)[O-])cc1`, the T/C is, setting by setting: under setting [2], 112 % of control; under setting [11], 94 % of control; under setting [12], 86 % of control; under setting [13], 97 % of control.

As to `C1CC[N-]CC1.C1CC[N-]CC1.C1CC[N-]CC1.[Cl][Cr]([Cl])[Cl]`, the T/C was 90 % of control under setting [1] and 100 % of control under setting [14].

As to `Cc1ccc(CNCC(=O)O)cc1`, the T/C by setting is: (dose: 100.0 mg/kg/injection, schedule: Q04DX003 (ip), vehicle: water) 99 % of control; (dose: 200.0 mg/kg/injection, schedule: Q04DX003 (ip), vehicle: water) 102 % of control; (dose: 400.0 mg/kg/injection, schedule: Q04DX003 (ip), vehicle: water) 90 % of control.

Consider `CSc1ncc2ncn(C3OC(CO)C(O)C3O)c2n1` (configuration not stated), for which the T/C runs as follows: (dose: 100.0 mg/kg/injection, schedule: Q01DX001 (ip), vehicle: Klucel (hydroxypropylcellulose) (HPC)) 86 % of control; under setting [14], 110 % of control; under setting [11], 86 % of control; under setting [3], 95 % of control; under setting [8], 95 % of control; (dose: 200.0 mg/kg/injection, schedule: Q01DX001 (ip), vehicle: Klucel (hydroxypropylcellulose) (HPC)) 100 % of control. Also, the T/C is, setting by setting: under setting [4], 105 % of control; under setting [12], 95 % of control; under setting [5], 100 % of control; under setting [9], 95 % of control; (dose: 400.0 mg/kg/injection, schedule: Q01DX001 (ip), vehicle: Klucel (hydroxypropylcellulose) (HPC)) 109 % of control; under setting [6], 105 % of control. For the same molecule, the T/C is, setting by setting: under setting [13], 86 % of control; under setting [7], 100 % of control; under setting [10], 100 % of control.

As for `CSc1ncc(Br)c(C(=O)O)n1`, the T/C runs as follows: under setting [11], 95 % of control; under setting [12], 100 % of control; under setting [13], 104 % of control.

Turning to `COc1ccc2nc(C)c(COC(C)=O)c(Cl)c2c1`, the T/C runs as follows: (dose: 50.0 mg/kg/injection, schedule: Q01DX009 (ip), vehicle: saline) 104 % of control; (dose: 100.0 mg/kg/injection, schedule: Q04DX003 (ip), vehicle: saline) 104 % of control; (dose: 200.0 mg/kg/injection, schedule: Q01DX009 (ip), vehicle: saline) 104 % of control; (dose: 200.0 mg/kg/injection, schedule: Q04DX003 (ip), vehicle: saline) 105 % of control; (dose: 400.0 mg/kg/injection, schedule: Q01DX009 (ip), vehicle: saline) 101 % of control; (dose: 400.0 mg/kg/injection, schedule: Q04DX003 (ip), vehicle: saline) 90 % of control.
